Tests used:
[1] = In vitro test of NO uptake: manometer pressure and IR spectrum of freeze-dried product; type: binding; details: aqueous solution under argon, 20° C.-24° C., NO gas in headspace, one hour
Description: The resulting solution was placed in a three-necked pear-shaped flask and stirred by a magnetic stirrer at constant speed of 1000 rpm, at a constant temperature in the range 20° C.-24° C. A manometer was attached to the flask, and purified, dried nitric oxide gas (known volume in the range 3-5cm^3) was introduced via a septum, using a gas syringe, at atmospheric pressure into the headspace above the reaction solution. The pressure within the flask was recorded periodically over a period of one hour.
A control experiment was carried out according to the above but without any complex present.
On completion of each in vitro test, the reaction solution was freeze-dried. An infrared spectrum of the freeze-dried product provided information on metal-NO bond formation.

[2] = tested on: murine (RAW264) macrophage cell lines; assay: In vitro cell culture test: available nitric oxide (nitrite+nitrate) in activated macrophages; type: cell-based; details: LPS + interferon γ activated RAW264, 18 hours
Description: Concurrently, test compounds made up in MEM were added at non-cytotoxic concentrations. Control cells as above, which were activated to produce nitric oxide as above, but to which no test compound was added, were used as a measure of the amouint of nitric oxide produced by the cells during the tests. (See […]. Powell, O. J. Vaughan, G. R. Henderson, B. A. Murrer, […]. Bisland, […], Ruthenium complexes as nitric oxide scavengers: a potential therapeutic approach to nitric oxide-mediated diseases, Br. J Pharmacol., 1997, 122, 1441-1449.) Background nitric oxide was assessed by measurement of nitrate and nitrite in cells which were not activated. Cell viability was confirmed by Trypan blue dye exclusion at the end of the incubation period. Nitric oxide was determined by measurement of nitrate and nitrite in the cell supernatant. These anions are the stable end-products of reactions of NO in solution. Such reactions may or may not be catalysed in biological systems. The sum of nitrite and nitrate concentrations gives the total NO production. […] Nitrate was determined by reducing nitrate to nitrite with a bacterial nitrate reductase from Pseudomonas oleovorans and then measuring nitrite with the Griess reaction. In the absence of test compounds nitrite concentration plus nitrate concentration is equal to total nitric oxide production. The effect of test compounds on available nitric oxide (measured as nitrite+nitrate) was determined. The reduction in available nitric oxide compared with the control level may be taken as an indication of the degree of binding of NO by the test compounds.

rat tail artery = assay: Ex vivo test: perfused pre-contracted rat tail artery, vasoconstriction; details: for Vasoconstriction on application of test compound: 10 μM and 100 μM (Example 26 also 1000 μM); for % Vasoconstriction: artery pre-contracted with 6.5 μM phenylephrine; for Reversibility of the vasoconstriction: washout with Krebs solution
Excerpt: In the ex vivo tests, segments of rat tail artery (0.8-1.5 cm) were dissected free from normotensive adult Wistar rats. The arteries were internally perfused with Krebs solution (mM: NaCl 118, KCl 4.7, NaHCO3 25, NaH2PO4 1.15, CaCl22.5, MgCl2 1.1, glucose 5.6 and gassed with 95% O2/5% CO2 to maintain a pH of 7.4) in a constant flow perfusion apparatus. A differential pressure transducer located upstream of the vessel detected changes in back pressure. The rat tail artery preparation was pre-contracted with 6.5 μM phenylephrine to give a physiologically normal pressure of 100-120 mm Hg. The pre-contracted vessels were then perfused with the test compound. The arteries were perfused with Krebs solution between applications of test compound to wash out the test compound.
Pressure changes in the system served to indicate artery vasoconstriction. The vasoconstriction is a direct result of the removal of endogenous nitric oxide (edrf) from the endothelial cells of the rat tail artery.

[3] = tested on: rat P22 carcinosarcoma grown in BD-IX rats; assay: Tumour growth, vascularisation and plasma nitrite/nitrate in rats bearing P22 carcinosarcoma; type: in vivo; details: for Nitrite/nitrate levels at Day 28 / Tumour vascularisation (MVD), Mean Chalkey score: 50 mg/kg daily i.p. Day 10-Day 28; for Nitrite/nitrate levels at Day 28: Griess assay, untreated control 7.75; for Tumour vascularisation (MVD), Mean Chalkey score: anti-CD31 immunostaining, untreated control 13.0; for Tumour growth: 50 mg/kg daily intraperitoneal, Day 10-Day 28, male BD-IX rats
Description: The effect of AMD6245 (Example 113) and AMD6221 (Example 8) on tumour growth was assessed using the rat P22 carcinosarcoma grown in BD-IX rats (Kennovin et al., in Biology of Nitric Oxide, Vol. 4, (S. Moncada, M. Feelisch, R. Busse, and A. E. Higgs, eds.), Portland Press, London, 1994, pp. 473-479). The tumour was implanted subcutaneously on the dorsal surface of male BD-IX rats on Day 0. Tumour growth was measured daily using calipers and tumour volume calculated from the equation […] where X=the short tumour axis and Y=the long tumour axis. Tumours were measurable by Day 10. AMD6245 and AMD6221 were administered daily by intraperitoneal injection at a dose of 50 mg/kg from Day 10-Day 28. Tumour vascularisation (Microvascular Density or MVD) was measured by Chalkley point counting after immunostaining with anti-CD31 antibody (Vermeulen et al., Eur. J. Cancer, 32A, 2474-2484, (1996)). Nitrite/nitrate was measured by the Griess assay (see Table 4). These anions are the stable end products of NO in solution. Nitrate was first reduced to nitrite by […]. The sum of nitrite and nitrate gives the total NO production.

| Compound | Pressure decrease indicating binding of NO to the metal compound [1] | % Decrease of Available Nitric Oxide ([2]; 100 μM test compound) [%] | Vasoconstriction on application of test compound (rat tail artery) | % Vasoconstriction (rat tail artery; 10 μM) [%] | % Vasoconstriction (rat tail artery; 100 μM) [%] | Reversibility of the vasoconstriction (rat tail artery) | further results |
| --- | --- | --- | --- | --- | --- | --- | --- |
| K[Ru(hnta)2]½H2O [Example 7] | pressure decrease indicated binding of NO | – | – | – | – | – | – |
| O.O=C([O-])CN(CCN(CC(=O)O)CC(=O)O)CC(=O)[O-].[Cl-].[Cl-].[K+].[Ru+3] [Example 6, K[Ru(H2edta)Cl2]H2O] | pressure decrease indicated binding of NO | 77 | – | – | – | – | – |
| [Ru(NH3)5Cl]Cl2 [Example 15] | – | 86 | dose-dependent vasoconstriction | 77 | 86 | reversible by washout | – |
| CC(=O)C=C(C)[O-].O=C([O-])CN(CCN(CC(=O)O)CC(=O)O)CC(=O)[O-].[Ru+3] [Example 2, [Ru(H2edta)(acac)]] | – | 82 | dose-dependent vasoconstriction | 20 | 69 | reversible by washout | – |
| K[Ru(H2dtpa)Cl]H2O [Example 8] | pressure decrease indicated binding of NO | – | – | – | – | – | Nitrite/nitrate levels at Day 28 [3]: 5.09 μmoles/litre plasma; Tumour vascularisation (MVD), Mean Chalkey score [3]: 5.3; Tumour growth [3]: inhibited the growth |
| [Ru(Hedta)]H2O [AMD6245] | – | – | – | – | – | – | Nitrite/nitrate levels at Day 28 [3]: 3.88 μmoles/litre plasma; Tumour vascularisation (MVD), Mean Chalkey score [3]: 3.0; Tumour growth [3]: inhibited the growth |
| O.O.O=C([O-])CN(CCN(CC(=O)[O-])CC(=O)O)CC(=O)[O-].[Cl-].[K+].[Ru+3] [Example 1, K[Ru(hedta)Cl]2H2O] | pressure decrease indicated binding of NO | 75 | – | – | – | – | % Decrease of Available Nitric Oxide ([2]; 25 μM test compound): 12%; % Decrease of Available Nitric Oxide ([2]; 50 μM test compound): 23% |
| O.O=C([O-])CN(CCO)CCN(CC(=O)[O-])CC(=O)[O-].[Cl-].[K+].[Ru+3] [Example 3, K[Ru(hedtra)Cl]H2O] | pressure decrease indicated binding of NO | 42 | dose-dependent vasoconstriction | 17 | 59 | reversible by washout | – |
| O.O=C([O-])c1cccc(C(=O)[O-])n1.O=C([O-])c1cccc(C(=O)[O-])n1.[K+].[Ru+3] [Example 4, K[Ru(dipic)2]H2O] | pressure decrease indicated binding of NO | – | – | – | – | – | – |
| CC(=O)[O-].CC(=O)[O-].CC(=O)[O-].CC(=O)[O-].[Cl-].[Ru+3].[Ru+3] [Example 14, [Ru2(OAc)4]Cl] | – | 47 | dose-dependent vasoconstriction | 11 | 40 | reversible by washout | – |
| Cc1occc(=O)c1[O][Ru]([O]c1c(C)occc1=O)[O]c1c(C)occc1=O [Example 26, [Ru(maltol)3]] | – | 71 | dose-dependent vasoconstriction | 10 | 18 | reversible by washout | % Vasoconstriction (rat tail artery; 1000 μM): 25% |

— patent US20020049190A1, “Pharmaceutical compositions comprising metal complexes” (priority 1999, published 2002)
